Usually IC50 stands for the concentration at which inhibition is half-maximal.

Activity calls are given as the source filed them. No rule for the calls is given here.

In the experiment the test system is HEK-293T NF-kB luciferase reporter, luminescence counterscreen. Put plainly: NF-kB reporter suppression in HEK-293T cells – luminescence, B-cell screen hits, counter-screen for BCR NF-kB inhibitor project, dose response (AID 489022).
Turning to `CCOC(=O)c1cc2c(=O)n3ccccc3nc2n(CC(C)C)c1=NC(=O)c1c(-c2c(F)cccc2Cl)noc1C`, the IC50 was 5.33 µM.
The figure for `N#Cc1ccccc1COc1ccc(/C=C/C(=O)O)cc1` is 6.03 µM; for `COc1ccc(-c2noc(N3CCC(C(=O)Nc4cccc(OC)c4)CC3)n2)cc1` it is 17.9 µM.
Consider `COc1ccc(-c2n(Cc3ccccc3)c3ccccc3[n+]2Cc2ccccc2)cc1`, for which the IC50 is 24.2 µM (inactive).
For `Cc1ccc(S(=O)(=O)CC2CSc3nc4ccccc4n32)cc1` (centres undefined) the value was 0.41 µM; for `CN1C(=O)CSc2ccc(NC(=O)N3CCN(c4ccccc4)CC3)cc21`, 50.5 µM (inactive); for `CCOC(=O)Cc1csc(NC(=S)NC(=O)c2ccc(C)cc2)n1`, > 80 µM (inactive).
The figure for `CCN(CC(=O)Nc1c(F)cccc1F)C(=O)c1cc(S(=O)(=O)N(C)C)ccc1N1CCCC1` is > 80 µM (inactive); for `CCOC(=O)c1nn(-c2ccccc2)c(C#N)c1NC(=O)c1nn(CC)cc1Br` it is > 80 µM (inactive).
For `COc1ccc(-c2noc(CCCC(=O)O)n2)cc1` the value was 4.02 µM; for `Cc1ccc(C(=O)CSc2nnc(COc3ccccc3)o2)cc1`, 40.9 µM (inactive); for `Cc1nc2cc(-c3ccc(Cl)cc3)nn2c(C)c1CCC(=O)NCc1ccco1`, > 80 µM (inactive).
With `Cc1ccccc1Nc1nc(Cl)c(C=O)s1`, the IC50 is > 80 µM (inactive).
For `CC(=O)c1cn(CCOc2cc(C)ccc2C)c2ccccc12` the value was 0.29 µM.
For `COc1ccc(-c2nc(CSCC(=O)NCc3ccco3)c(C)o2)cc1` the value was 38.5 µM (inactive); for `CCC(C)NC(=O)c1c(N)n(/N=C/c2ccccn2)c2nc3ccccc3nc12` (centres undefined), 34.8 µM (inactive).
The figure for `CCOc1ccc(/C=C2\SC(=S)N(CCC(=O)Nc3cccc(C(=O)O)c3)C2=O)cc1` is > 80 µM (inactive); for `CCOC(=O)Cc1ccc(NC(=O)c2ccc(C(C)(C)C)cc2)cc1` it is 1.04 µM; for `COc1ccc(CC(=O)Nc2cccc(-c3ccc4nnc(C)n4n3)c2)cc1` it is 41.8 µM (inactive).
Turning to `O=C1NC[C@H](c2ccccc2)OC(=O)[C@@H](Cc2ccc(F)cc2)C/C=C\C[C@H]1CC(=O)N(CCO)Cc1ccccc1`, the concentration for half-maximal inhibition (IC50) is 16.9 µM.
The figure for `O=C(Cc1cccc2ccccc12)Nc1ccc(-c2cc3ccccc3oc2=O)cc1` is > 80 µM (inactive); for `Oc1cc(O)cc(-c2cc3ccc(O)cc3o2)c1` it is > 80 µM (inactive); for `COc1ccc(/C=C2\SC(=S)N(CCCC(=O)Nc3ccc(O)cc3)C2=O)cc1` it is > 80 µM (inactive).
The figure for `CCn1c(=O)c2cc(C(=O)NC(C)C)sc2c2ccccc21` is > 80 µM (inactive).
For `CCN1C(=O)c2cccc3c(NC(=O)c4cccc(N5C(=O)CCC5=O)c4)ccc1c23` the value was > 80 µM (inactive); for `COc1ccc(C(=O)Nc2nnc(SCC(=O)Nc3ccc(NC(C)=O)cc3)s2)c(OC)c1`, > 80 µM (inactive).
As to `CC(C)(C)c1ccc(-c2noc(CCC(N)=O)n2)cc1`, the concentration for half-maximal inhibition (IC50) is 0.27 µM.
For `ClCc1nnc(-c2ccccc2)o1` the value was > 80 µM (inactive); for `O=C(Nc1nc(-c2ccccc2)cs1)c1ccccc1NS(=O)(=O)c1ccc(F)cc1`, 0.39 µM.
The figure for `CCOc1ccc(S(=O)(=O)NCc2ccncc2)cc1NC(=O)c1ccccc1` is 1.37 µM; for `N=c1c2c(n(Cc3ccc(Cl)cc3Cl)c3c1CCC3)CCCC2` it is 3.43 µM; for `O=C(Nc1nc2nc(-c3ccccc3)cc(-c3ccccc3)n2n1)c1ccco1` it is 23.5 µM (inactive).
For `COc1ccc(N(CC(=O)N2CCN(c3ccc(Cl)cc3)CC2)S(=O)(=O)c2c(C)n[nH]c2C)cc1` the value was 15.3 µM; for `CCOc1ccc(-c2nnc(SCC(=O)NC3CC3)o2)cc1`, > 80 µM (inactive).
Regarding `COc1ccccc1/C=C1\SC(=S)N(CCC(=O)Nc2cc(C)on2)C1=O`, the IC50 was > 80 µM (inactive).
For `CCc1ccc(-c2nc(CSCC(=O)NC3CC3)c(C)o2)cc1` the value was 30.5 µM (inactive).
In the case of `O=C1CCC2S/C(=C/Nc3ccc(C(F)(F)F)cc3)C(=O)N12` (centres undefined), the half-inhibitory concentration (IC50) was 3.77 µM.
The figure for `Cc1cc(C)c2nc(NC(=O)[C@@H](NC(=O)c3cccc(S(=O)(=O)N4CCOCC4)c3)C(C)C)sc2c1` is > 80 µM (inactive); for `Cc1ccc(C)c(-n2nnnc2Sc2nnnn2-c2ccccc2)c1` it is 6.7 µM; for `CCN1C(=O)c2cccc3c(S(=O)(=O)Nc4ccccn4)ccc1c23` it is 9.44 µM.
Consider `Cc1ccc(C(=O)CSc2nnc(COc3cc(C)cc(C)c3)o2)cc1`, for which the IC50 is 24.9 µM (inactive).
The figure for `CCCc1nc2c(C)cc(-c3nc4ccccc4n3C)cc2n1Cc1ccc(-c2ccccc2C(=O)O)cc1` is > 80 µM (inactive); for `CCOc1cc(/C=N\Nc2nc(Nc3ccccc3)nc(N3CCOCC3)n2)ccc1OC(=O)c1ccco1` it is > 80 µM (inactive).
The figure for `O=C(CCCN1C(=O)/C(=C/c2ccccc2Cl)SC1=S)NNC(=O)c1ccccc1` is 21.8 µM (inactive); for `Cc1ccc(/C=C2\SC(=S)N(CCCC(=O)Nc3ccccn3)C2=O)cc1` it is 32.1 µM (inactive); for `Oc1[nH]c2ccccc2c1N=Nc1nc(Nc2ccccc2)nc(N2CCOCC2)n1` it is 35.5 µM (inactive).
The figure for `CN1C(=O)CC(c2ccco2)Sc2ccccc21` (centres undefined) is > 80 µM (inactive).
For the compound `CCN(CC)C(=O)c1ccc(S(=O)(=O)Cc2ccc(C)cc2)c([N+](=O)[O-])c1`, the IC50 is 34.7 µM (inactive).
`O=C(O)CCSc1ncnc2sc(-c3ccccc3)cc12`: the concentration for half-maximal inhibition (IC50) is 11.8 µM.
For `CC(C)C(c1nnnn1Cc1ccccc1)N(Cc1ccco1)Cc1cccs1` (centres undefined) the value was 8.89 µM; for `Cn1c(=O)cc(OCC(=O)N2CCC3(CC2)OCCO3)c2ccccc21`, > 80 µM (inactive).
The figure for `Cc1nc2cc(-c3cccc(F)c3)nn2c(C)c1CCC(=O)N1CCC2(CC1)OCCO2` is 34 µM (inactive); for `CC(C)N1C(=O)S/C(=C/c2ccc3c(c2)n(C)c(=O)n3C)C1=O` it is > 80 µM (inactive).
The figure for `COc1ccc(-c2ccc(C)cc2)cc1[C@H]1[C@H]2C=CC[C@@H](C)[C@@H]2C(=O)N1Cc1ccccc1` is 48.4 µM (inactive).
Take `Cn1c(=O)n(C)c2cc(/C=C3/NC(=O)N(Cc4ccccc4)C3=O)ccc21`: the IC50 was > 80 µM (inactive).
For `COc1cc(C(=O)Nc2cc(C)c(OCC(=O)N3CCOCC3)c(C)c2)cc(OC)c1OC` the value was > 80 µM (inactive); for `O=C(CN1C(=O)c2ccccc2S1(=O)=O)N1CCc2ccccc21`, 0.897 µM.
As to `CCOC(=O)/C=C(\C)Sc1cc(=O)oc2ccccc12`, the IC50 was 10.5 µM.
The figure for `CN(C)S(=O)(=O)c1ccc(NC(=O)N2CCN(c3ccccc3)CC2)cc1` is > 80 µM (inactive); for `CC(C)[C@H](N)c1nnc(SCC(=O)c2ccc(Cl)cc2)o1` it is > 80 µM (inactive); for `CCN1CCN(C(=O)CSc2cc(=O)n(CC)c3ccccc23)CC1` it is > 80 µM (inactive).
The figure for `C=CCn1c(O)c(C(C)=NC(C)c2ccccc2)c(=O)[nH]c1=O` (centres undefined) is 60.2 µM (inactive).
The figure for `N=c1ccn(Cc2c(Cl)cccc2Cl)cc1` is 14.1 µM.
For the compound `Cn1c(=O)cc(SCC(=O)N2CCCC2)c2cc(Cl)ccc21`, the IC50 was > 80 µM (inactive).
The figure for `CC1=CC(C)(C)Nc2ccc(OC(=O)c3cccnc3)cc21` is 16.1 µM; for `CCOc1ccc(-n2c(-c3ccccc3)c[n+]3c2CCCCC3)cc1` it is 1.4 µM.
For `CC1CC(C)(C)Nc2ccc(OC(=O)c3ccco3)cc21` (centres undefined) the value was 8.89 µM; for `CCn1c(CN2CCN(c3ccc(Cl)cc3)CC2)nc2ccccc21`, 9.25 µM.
The figure for `CCOc1ccc(-n2c(SCC(=O)Nc3ccc4c(c3)OCCO4)nc3c(c2=O)SCC3)cc1` is > 80 µM (inactive); for `COc1ccc(OCc2cccc(C(=O)NN)c2)cc1` it is 17.4 µM.
Consider `O=C(NNC(=O)C12CC3CC(CC(Br)(C3)C1)C2)c1ccccc1F`, for which the IC50 is > 80 µM (inactive).
The figure for `Cc1ccc(NC(=O)C2CCC(CNc3c(N4CCC(C)CC4)c(=O)c3=O)CC2)cc1F` (centres undefined) is > 80 µM (inactive); for `Cc1nnc2c3ccccc3c(-c3ccccc3)nn12` it is 61.4 µM (inactive); for `CCN1C(=O)Nc2cccc3cccc1c23` it is 17.8 µM.
The figure for `CCOc1cc2nc(-c3ccc(OC)c(OC)c3)nc(N3CCOCC3)c2cc1OC` is 7.5 µM.
The figure for `COc1ccc(/C=N/OCC(=O)NC(c2ccccc2)c2ccccc2)cc1OC` is 0.72 µM; for `C=C1C(=O)[C@@]23C[C@H]4[C@@H]5[C@@]6(C)CCC[C@@]57[C@@H]2[C@@H](O)[C@@H]1C[C@H]3[C@H]7N4C6` it is 17.3 µM.
`COc1cc(-c2nc3ccc(N4CCN(C)CC4)cc3[nH]2)cc(OC)c1OC`: the IC50 was > 80 µM (inactive).
For `CC1CCN(CCCNC(=O)COc2cc(=O)n(C)c3ccccc23)CC1` the value was > 80 µM (inactive); for `CCOCCCNc1nc2c(C)cccn2c(=O)c1/C=C1\SC(=S)N(C(C)CC)C1=O` (centres undefined), > 80 µM (inactive).
As for `COc1cc(Br)c(C(=O)c2nccc3cc(OC)c(OC)cc23)cc1OC`, the IC50 was 27.5 µM (inactive).
The figure for `C/C(=N\Nc1nc(Nc2ccccc2)nc(N2CCOCC2)n1)c1cccs1` is > 80 µM (inactive); for `C(=N\Nc1nc(Nc2ccccc2)nc(N2CCOCC2)n1)/c1c[nH]c2ccccc12` it is 53 µM (inactive); for `CCCS(=O)(=O)Nc1cccc(-c2ccc3nnc(C)n3n2)c1` it is > 80 µM (inactive).
The figure for `CC(C)Oc1ccc(C(=O)Nc2ccc(N(C)C)cc2)cc1` is > 80 µM (inactive); for `COc1ccc(NC(=S)NCc2ccccc2)c(OC)c1` it is > 80 µM (inactive); for `Cc1ccc(-c2cn(-c3ccccc3)c3[n+]2CCCS3)cc1` it is 4.88 µM.
Consider `CCOC(=O)Cc1csc(NC(=S)NC(=O)c2ccc(Cl)cc2)n1`, for which the IC50 is > 80 µM (inactive).
For `Cc1ccc(-c2c[n+]3c(n2-c2ccccc2)SCC3)cc1`, the IC50 was 7.4 µM.

Source of the values: PubChem BioAssay AID489022 (Sanford-Burnham Center for Chemical Genomics, 2010).
